Source: patent US10738028B2, “Spiro three-membered ring, spiro five-membered ring peptide deformylase inhibitor and use thereof in antibacteria and anti-tumor” (priority 2016, dated 2020)
Read-outs that look alike come from different tables or passages of the source.

Columns and labels:
Assay type in all cases: cell-based
[1] = tested on: HCT-116 colorectal cancer cell line; assay: CCK-8 proliferation inhibition; settings: Homo sapiens, HCT-116, 72 h, concentration of 30 μM, 72 hours, CCK-8
Procedure, shortened: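 Proliferation over 72 hours of compound treatment was measured with CCK-8 against a 1‰ DMSO control.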

[2] = tested on: Moraxella catarrhalis (BCA); assay: MIC, two-fold agar dilution (CLSI), clinical isolates
Procedure, shortened: (§1)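 MIC values come from two-fold agar dilution run per CLSI antimicrobial susceptibility testing procedure.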

[3] = tested on: Streptococcus pneoumoniae (SPN); assay: as above
Procedure, shortened: as §1

[4] = tested on: Enterococcus faecium (EFM); assay: as above
Procedure, shortened: as §1

[5] = tested on: Enterococcus faecalis (EFA); assay: as above
Procedure, shortened: as §1

[6] = tested on: methicillin-resistant Staphylococcus epidermidis (MRSE); assay: as above
Procedure, shortened: as §1

[7] = tested on: methicillin-sensitive Staphylococcus epidermidis (MSSE); assay: as above
Procedure, shortened: as §1

[8] = tested on: Escherichia coli (including ESBLs, non-ESBLs); assay: as above
Procedure, shortened: as §1

[9] = tested on: methicillin-resistant Staphylococcus aureus (MRSA); assay: as above
Procedure, shortened: as §1

[10] = tested on: methicillin-sensitive Staphylococcus aureus (MSSA); assay: as above
Procedure, shortened: as §1

[11] = tested on: MGC-803 gastric cancer cell line; assay: CCK-8 proliferation inhibition; settings: Homo sapiens, MGC-803, 72 h, concentration of 30 μM
Procedure, shortened: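 Using media specific to each line (1640 for MGC-803 and Jurkat, F12 for PC3, DMEM high glucose for MCF-7, each with 10% newborn bovine serum), cells at 2000/well were treated for 72 h with serially formulated compounds, then assessed with CCK-8 diluted 1:10.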

[12] = tested on: A549 lung cancer cell line; assay: CCK-8 proliferation inhibition; settings: Homo sapiens, A549, 72 h, concentration of 30 μM
Procedure, shortened: (§2)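 Plating at 2000 cells/well, then incubation overnight at 37° C. Next, a range of compound concentrations for 72 hours (control 1‰ DMSO). Finally, medium decanted and CCK-8 diluted 1:10 added.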

[13] = tested on: BEL-7402 liver cancer cell line; assay: CCK-8 proliferation inhibition; settings: Homo sapiens, Bel-7402, 72 h, concentration of 30 μM
Procedure, shortened: as §2

O=C(C[C@@H](CC1CCCC1)C(=O)N1CC2(CC2)C[C@H]1C(=O)Nc1ccc(N2CCOCC2)cc1)NO [Example 61]
8 µg/mL: Anti-bacterial activity (MIC), strain BCA 14-1 ([2]; clinical isolate BCA 14-1) | Anti-bacterial activity (MIC), strain BCA 14-4 ([2]; clinical isolate BCA 14-4) | Anti-bacterial activity (MIC), strain BCA 14-7 ([2]; clinical isolate BCA 14-7) | Anti-bacterial activity (MIC), strain BCA 14-8 ([2]; clinical isolate BCA 14-8) | Anti-bacterial activity (MIC), strain BCA 14-10 ([2]; clinical isolate BCA 14-10) | Anti-bacterial activity (MIC), strain EFA 15-9 ([5]; clinical isolate EFA 15-9)
32 µg/mL: Anti-bacterial activity (MIC), strain MSSE 15-6 ([7]; clinical isolate MSSE 15-6)
≥ 30%: inhibition at 30 µM ([1]; Table 5, read-out: Inhibition of proliferation, Colorectal cancer HCT116)
2 µg/mL: Anti-bacterial activity (MIC), strain SPN 16-2 ([3]; clinical isolate SPN 16-2) | Anti-bacterial activity (MIC), strain SPN 16-4 ([3]; clinical isolate SPN 16-4)
50%: inhibition at 30 µM [13]
31%: inhibition at 30 µM [11]
1 µg/mL: Anti-bacterial activity (MIC), strain BCA 14-5 ([2]; clinical isolate BCA 14-5) | Anti-bacterial activity (MIC), strain BCA 14-6 ([2]; clinical isolate BCA 14-6) | Anti-bacterial activity (MIC), strain EFM 15-6 ([4]; clinical isolate EFM 15-6) | Anti-bacterial activity (MIC), strain MRSE 15-1 ([6]; clinical isolate MRSE 15-1) | Anti-bacterial activity (MIC), strain MRSE 15-2 ([6]; clinical isolate MRSE 15-2) | Anti-bacterial activity (MIC), strain MRSE 15-3 ([6]; clinical isolate MRSE 15-3) | Anti-bacterial activity (MIC), strain MRSE 15-7 ([6]; clinical isolate MRSE 15-7) | Anti-bacterial activity (MIC), strain MSSE 15-3 ([7]; clinical isolate MSSE 15-3) | Anti-bacterial activity (MIC), strain MSSE 15-4 ([7]; clinical isolate MSSE 15-4) | Anti-bacterial activity (MIC), strain MSSE 15-5 ([7]; clinical isolate MSSE 15-5) | Anti-bacterial activity (MIC), strain ECO+ 15-3 ([8]; clinical isolate ECO+ 15-3) | Anti-bacterial activity (MIC), strain ECO+ 15-4 ([8]; clinical isolate ECO+ 15-4) | Anti-bacterial activity (MIC), strain MRSA 15-1 ([9]; clinical isolate MRSA 15-1) | Anti-bacterial activity (MIC), strain MRSA 15-2 ([9]; clinical isolate MRSA 15-2) | Anti-bacterial activity (MIC), strain MRSA 15-3 ([9]; clinical isolate MRSA 15-3) | Anti-bacterial activity (MIC), strain MRSA 15-4 ([9]; clinical isolate MRSA 15-4) | Anti-bacterial activity (MIC), strain MSSA 15-3 ([10]; clinical isolate MSSA 15-3) | Anti-bacterial activity (MIC), strain MSSA 15-4 ([10]; clinical isolate MSSA 15-4) | Anti-bacterial activity (MIC), strain MSSA 15-6 ([10]; clinical isolate MSSA 15-6)
35%: inhibition at 30 µM ([1]; read-out: HCT116 inhibition rate/%)
> 32 µg/mL: Anti-bacterial activity (MIC), strain EFM 15-1 ([4]; clinical isolate EFM 15-1) | Anti-bacterial activity (MIC), strain EFM 15-2 ([4]; clinical isolate EFM 15-2) | Anti-bacterial activity (MIC), strain EFM 15-3 ([4]; clinical isolate EFM 15-3) | Anti-bacterial activity (MIC), strain EFM 15-4 ([4]; clinical isolate EFM 15-4) | Anti-bacterial activity (MIC), strain EFA 15-1 ([5]; clinical isolate EFA 15-1) | Anti-bacterial activity (MIC), strain EFA 15-2 ([5]; clinical isolate EFA 15-2) | Anti-bacterial activity (MIC), strain EFA 15-3 ([5]; clinical isolate EFA 15-3) | Anti-bacterial activity (MIC), strain EFA 15-4 ([5]; clinical isolate EFA 15-4) | Anti-bacterial activity (MIC), strain EFA 15-5 ([5]; clinical isolate EFA 15-5) | Anti-bacterial activity (MIC), strain EFA 15-6 ([5]; clinical isolate EFA 15-6) | Anti-bacterial activity (MIC), strain ECO+ 15-1 ([8]; clinical isolate ECO+ 15-1) | Anti-bacterial activity (MIC), strain ECO+ 15-2 ([8]; clinical isolate ECO+ 15-2) | Anti-bacterial activity (MIC), strain ECO− 15-1 ([8]; clinical isolate ECO− 15-1) | Anti-bacterial activity (MIC), strain ECO− 15-2 ([8]; clinical isolate ECO− 15-2) | Anti-bacterial activity (MIC), strain ECO− 15-3 ([8]; clinical isolate ECO− 15-3) | Anti-bacterial activity (MIC), strain ECO− 15-4 ([8]; clinical isolate ECO− 15-4) | Anti-bacterial activity (MIC), strain MSSA 15-5 ([10]; clinical isolate MSSA 15-5)
10%: inhibition at 30 µM [12]
